The target in test [1] is T1, CCK receptor (pancreas) (Rattus norvegicus, UniProt P30551).
T1 construct: The whole pancreas of a male Sprague-Dawley rat (200-350 g), which had been sacrificed by decapitation, was dissected free of fat tissue and homogenized; from tissue; host or cells: rat pancreas membrane homogenate
T1 sequence (P30551 1-444): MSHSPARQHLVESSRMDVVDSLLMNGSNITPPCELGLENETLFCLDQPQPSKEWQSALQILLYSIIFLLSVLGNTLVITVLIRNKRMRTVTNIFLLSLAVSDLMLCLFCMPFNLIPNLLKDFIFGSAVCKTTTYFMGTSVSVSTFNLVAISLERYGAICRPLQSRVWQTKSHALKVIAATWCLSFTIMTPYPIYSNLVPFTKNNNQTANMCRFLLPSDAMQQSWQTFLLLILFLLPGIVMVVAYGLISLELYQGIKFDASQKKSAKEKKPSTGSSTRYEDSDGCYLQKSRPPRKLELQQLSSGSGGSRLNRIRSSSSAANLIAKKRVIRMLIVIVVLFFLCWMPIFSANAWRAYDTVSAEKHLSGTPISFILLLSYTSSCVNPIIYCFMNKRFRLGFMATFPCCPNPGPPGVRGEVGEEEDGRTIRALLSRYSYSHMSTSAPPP
As to the kind of experiment: CCK receptor binding (pancreas), 125I-CCK-33 receptor binding assay. The conditions noted are these: for IC50: inhibition of 50% of the 125I-CCK binding, rat pancreas membranes, 37°C, 30 minutes. The text has this: Screening of these known compounds to determine biological activity and obtain an IC50 value for them to identify significant CCK-antagonism may be accomplished using an 125I-CCK receptor binding assay and in vitro isolated tissue preparations. These tests involve the following: • CCK receptor binding (pancreas) method
CCK-33 was radiolabeled with ^125I-Bolton Hunter reagent (2000 Ci/mmole), as described by Sankara et al. (J. Biol. Chem., 254, 9349-9351, 1979).
The whole pancreas of a male Sprague-Dawley rat (200-350 g), which had been sacrificed by decapitation, was dissected free of fat tissue and homogenized in 20 volumes of ice-cold 50 mM Tris HC1 (pH 7.7 at 25°C) with a Brinkmann Polytron PT-10. The homogenates were centrifuged at 48,000g for 10 minutes, then the resulting pellets were resuspended in Tris Buffer, centrifuged as above, and resuspended in 200 volumes of binding assay buffer (50 mM Tris HC1, pH 7.7 at 25°C, 5 mM dithiothreitol, 0.1 mM bacitracin, 1.2 mM phenylmethane sulfonyl fluoride and 0.5 mM o-phenanthroline).
All assays were run in duplicate or triplicate, and the reaction mixtures were incubated at 37°C for 30 minutes and centrifuged in a Beckman Microfuge (4 minutes) immediately after adding 1 ml of ice-cold incubation buffer. The supernatant was aspirated and discarded, and the pellets were counted with a Beckman gamma 5000.

Test [2] deals with CCK-8 response in guinea pig gall bladder. Put plainly: Isolated guinea pig gall bladder, CCK-8 contractile response. As to conditions: compound at 2 uM, added at least 5 minutes before CCK-8. How it is done: Isolated guinea pig gall bladder method
The two halves of the gall bladders, free of adjacent tissue, of male Hartley guinea pigs (400-600 q), which had been sacrificed by ? were suspended under 1 g tension along the axis of the bile duct in 5 ml organ bath, containing a Kreb's bicarbonate solution of 118 mM NaCl, 4.75 mM KC1, 2.54 CaCl2, 1.19 mM KH2PO4, 1.2 mM MgS04, 25 mM NaHC03 and 11 mM dextrose, which is maintained at 32°C and bubbled with a mixture of 95% 02 and 5% C02. The tissues were washed every 10 minutes for 1 hour to obtain equilibrium prior to the beginning of the study and the isometric contractions of the strips were recorded using Statham (60 g:0.12 mm) strain gauges and a Hewlett-Packard 77588 recorder.
CCK-8 was added cumulatively to the baths and the EC50's were determined using regression analysis. After washout (every 10 minutes-for 1 hour), the compound to be tested was added at least 5 minutes before the addition of CCK-8 and the EC50 of CCK-8 in the presence of the compound to be tested was also simillarly determined.

Setting [3] is: read-out: IC50 (µM) CCK Pancreas.

In general, IC50 refers to the point on the concentration scale where inhibition reaches its midpoint.

Read-outs that look alike come from different tables or passages of the source.

As for `CN1c2ccccc2C(c2ccccc2F)=NCC1CN1C(=O)c2ccccc2C1=O` (stereo not drawn) [Compound 5, [(1-methyl-5-(2'-fluorophenyl)-lH-l,4-benzopin-2-yl)methyl]-lH-isoindole-1,3-(2H)-dione], the IC50 in test [1] (setting [3]) worked out at 4.3 µM.
As for `CN1c2ccccc2C(c2ccccc2F)=NCC1CNC(=O)c1ccccc1F` (stereo not drawn) [Compound 4, l-methyl-2-(2-fluorophenyl-carbonyl)aminomethyl-5-(2'-fluorophenyl)-lH-2,3-dihydro-1,4-benzodiazepine], the IC50 in test [1] (setting [3]) is 2.9 µM.
Turning to `CN1c2ccccc2C(c2ccccc2F)=NCC1CNC(=O)c1ccsc1` (single isomer, unassigned; (-)) [Compound 1, (-)-1-methyl-2-(thiophene-3-carbonyl)aminomethyl-5-(2'-fluorophenyl)-1H-2,3-dihydro-1,4-benzodiazepine], in test [1] (IC50 (µM) CCK Pancreas), the IC50 is 0.1 µM.
Consider `CN1c2ccccc2C(c2ccccc2F)=NCC1CNC(=O)c1ccc(Cl)cc1` (stereo not drawn) [Compound 3, l-methyl-2-(4'-chlorophenylcarbonyl) aminomethyl-5-(2'-fluorophenyl)-3H-2,3-dihydro-1,4-benzodiazepine], for which the 50% inhibitory concentration (IC50) in test [1] (setting [3]) turned out to be 0.8 µM.
For the compound `CN1c2ccccc2C(c2ccccc2F)=NCC1CNC(=O)c1ccsc1` (single isomer, unassigned; (+)) [Compound 6, (+)-1-methyl-2-(thiophene-3-carbonyl)aminomethyl-5-(2-fluorophenyl)-lH-2,3-dihydro-1,4-benzodiazepine], the IC50 in test [1] (IC50 (µM) CCK Pancreas) was 13.9 µM.
In turn, `CN1c2ccccc2C(c2ccccc2F)=NCC1CNC(=O)c1ccsc1` (racemic) [Compound 2, (±)-1-methyl-2-(thiophene-3-carbonyl) aminomethyl-5-(2'-fluorophenyl)-2,3-dihydro-l,4-benzodiazepine] returned an IC50 in test [1] (IC50 (µM) CCK Pancreas) of 0.2 µM. Also, the “mechanism of inhibition of specific 125I-CCK-33 receptor binding (Scatchard analysis)” value in test [1] (absence and presence of 0.2 µM of compound, increased the KD without affecting the Bmax) is reported as “competitively inhibited specific ^125I-CCK-33 receptor binding”. Also, the “effect on CCK dose response curve” value in test [2] is listed as “parallel shift to the right of the CCK dose response curve without reduction of the maximal contractile response”.
As to `CN1c2ccccc2C(c2ccccc2F)=NCC1CNC(=O)c1cccnc1` (stereo not drawn) [Compound 7, 1-methyl-2-(pyridine-3-carbonyl)aminomethyl-5-(2'-fluorophenyl)-1H-2,3-dihydro-1,4-benzodiazepine], the IC50 in test [1] (setting [3]) was determined as 10 µM.

For the origin of these results see patent publication EP0170024A2, “Use of 2-acylaminomethyl-1,4-benzodiazepine derivatives for the production of pharmaceutical compositions and process for the preparation for pharmaceutical compositions” (priority 1984, dated 1986).
